Experimental data published in PMC10641276 (Saudi Pharmaceutical Journal : SPJ, 2023).

molecular target: thymidine phosphorylase (Escherichia coli, UniProt P07650); type: biochemical; details: thymidine phosphorylase inhibition versus standard drug (7-deazaxanthine)
Sequence (P07650 whole entry): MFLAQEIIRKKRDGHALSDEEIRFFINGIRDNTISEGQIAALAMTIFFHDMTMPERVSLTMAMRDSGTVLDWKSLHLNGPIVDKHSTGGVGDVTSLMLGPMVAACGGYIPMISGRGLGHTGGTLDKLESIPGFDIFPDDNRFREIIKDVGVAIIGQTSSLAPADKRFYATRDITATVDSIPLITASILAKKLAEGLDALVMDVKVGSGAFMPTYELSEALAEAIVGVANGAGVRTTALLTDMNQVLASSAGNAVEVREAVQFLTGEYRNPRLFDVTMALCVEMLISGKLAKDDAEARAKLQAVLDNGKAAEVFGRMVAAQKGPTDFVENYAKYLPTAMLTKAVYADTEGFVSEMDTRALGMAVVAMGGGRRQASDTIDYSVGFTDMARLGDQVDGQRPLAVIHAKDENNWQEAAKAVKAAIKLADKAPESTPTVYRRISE

Row | SMILES | potency compared with standard drug
1 | C(=N\c1nnc(-c2cccc(-c3nnc(/N=C/c4ccc(-c5ccccc5)cc4)s3)n2)s1)/c1ccc(-c2ccccc2)cc1 [4e, (1E,1'E)-N,N'-(pyridine-2,6-diylbis(1,3,4-thiadiazole-5,2-diyl))bis(1-([1,1'-biphenyl]-4-yl)methanimine)] | less potent than the standard drug
2 | Cc1ccc(-c2ccc(/C=N/c3nnc(-c4cccc(-c5nnc(/N=C/c6ccc(-c7ccc(C)cc7)cc6)s5)n4)s3)cc2)cc1 [4n, (1E,1'E)-N,N'-(pyridine-2,6-diylbis(1,3,4-thiadiazole-5,2-diyl))bis(1-(4'-methyl-[1,1'-biphenyl]-4-yl)methanimine)] | less potent than the standard drug
3 | CN(C)c1ccc(/C=N/c2nnc(-c3cccc(-c4nnc(/N=C/c5ccc(N(C)C)cc5)s4)n3)s2)cc1 [4i, 4,4'-((1E,1'E)-((pyridine-2,6-diylbis(1,3,4-thiadiazole-5,2-diyl))bis(azanylylidene))bis(methanylylidene))bis(N,N-dimethylaniline)] | less potent than the standard drug
